Experimental data from BindingDB's records for doi:10.3109/14756366.2012.677838 (Inonu University, 2013).
pIC50: −log10 of the molar value.

Tests used:
Carbonic anhydrase 2 = Carbonic anhydrase 2 (Homo sapiens, UniProt P00918); test: CA Enzyme Assay; conditions: pH 10
Experimental: (§1) CA activity was measured by the Maren method which is based on determination of the time required for the pH to decrease from 10.0 to 7.4 due to CO2 hydration [Maren et al., J. Pharm. Exp. Ther., 130:2629-2634]. The assay solution was 0.5 M Na2CO3/0.1 M NaHCO3 (pH 10.0) and Phenol Red was added as the pH indicator.

Carbonic anhydrase 1 = Carbonic anhydrase 1 (Homo sapiens, UniProt P00915); test: CA Enzyme Assay; conditions: pH 10
Experimental: as §1

Sequence of Carbonic anhydrase 1 (P00915 whole entry): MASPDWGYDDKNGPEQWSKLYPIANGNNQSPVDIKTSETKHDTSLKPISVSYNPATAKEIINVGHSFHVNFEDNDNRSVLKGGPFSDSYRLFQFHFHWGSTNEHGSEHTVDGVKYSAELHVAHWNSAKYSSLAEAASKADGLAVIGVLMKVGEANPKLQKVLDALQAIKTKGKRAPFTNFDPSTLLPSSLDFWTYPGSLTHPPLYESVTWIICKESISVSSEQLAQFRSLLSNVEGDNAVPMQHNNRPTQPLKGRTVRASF

SMILES | pIC50 (Carbonic anhydrase 2) | pIC50 (Carbonic anhydrase 1)
CCOCCN1CN(Cc2cc(=O)oc3c(O)c(O)ccc23)c2ccccc21 [1-(2-Ethoxyethyl)-3-(4-methyl-7,8-dihydroxy-2H-chromen-2-one)benzimidazolium chloride (3e)] | 4.48 | 4.48
COCCN1CN(Cc2cc(=O)oc3c(O)c(O)ccc23)c2ccccc21 [1-(2-Methoxyethyl)-3-(4-methyl-7,8-dihydroxy-2H-chromen-2-one)benzimidazolium chloride (3d)] | 4.38 | 4.49
Cc1cccc(CN2CN(Cc3cc(=O)oc4c(O)c(O)ccc34)c3ccccc32)c1 [1-(3-Methylbenzyl)-3-(4-methyl-7,8-dihydroxy-2H-chromen-2-one)benzimidazolium chloride (3g)] | 4.54 | 4.66
C=CCN1CN(Cc2cc(=O)oc3c(O)c(O)ccc23)c2ccccc21 [1-Allyl-3-(4-methyl-7,8-dihydroxy-2H-chromen-2-one)benzimidazolium chloride (3c)] | 4.53 | 4.32
